Legend:
[1] = Reaction rate constant of the compound
[2] = Krel expressed as Ki with respect to Ktrolox

Compound	reaction rate constant [1] [M⁻¹ s⁻¹]	Krel [2]
Cc1nc2cnc(-c3ccccc3)cn2c1O.Cl	170000	10
Cc1nc2cnccn2c1O.Cl	60000	3.5
Cl.Oc1c(-c2ccccc2)nc2cnccn12	84000	4.9
Cc1c(C)c2c(c(C)c1O)CCC(C)(C(=O)O)O2 (stereo unspecified) [TROLOX]	17000	1
COc1ccc(-c2cn3c(O)c(Cc4ccc(O)cc4)nc3c(Cc3ccccc3)n2)cc1	96000	5.6
Oc1ccc(Cc2nc3c(Cc4ccccc4)nc(-c4ccc(O)cc4)cn3c2O)cc1 [COELENTERAZINE]	120000	7.1
Cc1nc2cnc(-c3ccc(O)cc3)cn2c1O.Cl	210000	12.3
Cl.Oc1c(Cc2ccccc2)nc2cnccn12	28000	1.6

Continued, values first:

reaction rate constant [1] [M⁻¹ s⁻¹]	Krel [2]	Compound
65000	3.8	Cl.Oc1c(Cc2ccccc2)nc2cnc(-c3ccccc3)cn12
105000	6.2	Cl.Oc1ccc(-c2cn3c(O)c(-c4ccccc4)nc3cn2)cc1
160000	9.4	COc1ccc(-c2cn3c(O)c(Cc4ccccc4)nc3cn2)cc1.Cl
280000	16.5	COc1ccc(-c2cn3c(O)c(C)nc3cn2)cc1.Cl
33000	1.9	Cl.Oc1ccc(-c2cn3c(O)c(Cc4ccccc4)nc3cn2)cc1
